Several values for one entry are separate records, joined by “and”; a condition that tells them apart may be missing. Equal entries are not always repeated. Toxic doses and inconclusive results are not listed.
Test system: BDF1 mice, B16 melanoma ip, median survival T/C
Experiment: NCI In Vivo Anticancer Drug Screen. Data for tumor model B16 Melanoma (intraperitoneal) in B6D2F1 (BDF1) mice
Conditions: endpoint: median survival time, higher = longer survival
How it was run: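 The ratio T/C compares compound-treated mice with vehicle-treated controls, using survival or tumor size as the endpoint in a transplantable tumor model.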

[1] = dose: 100.0 mg/kg/injection, schedule: Q01DX009 (ip), vehicle: saline with Tween-80
[2] = dose: 200.0 mg/kg/injection, schedule: Q01DX009 (ip), vehicle: saline with Tween-80
[3] = dose: 50.0 mg/kg/injection, schedule: Q01DX009 (ip), vehicle: saline with Tween-80
[4] = dose: 12.5 mg/kg/injection, schedule: Q01DX009 (ip), vehicle: saline
[5] = dose: 25.0 mg/kg/injection, schedule: Q01DX009 (ip), vehicle: saline
[6] = dose: 100.0 mg/kg/injection, schedule: Q01DX009 (ip), vehicle: Klucel (hydroxypropylcellulose) (HPC)
[7] = dose: 200.0 mg/kg/injection, schedule: Q01DX009 (ip), vehicle: Klucel (hydroxypropylcellulose) (HPC)
[8] = dose: 400.0 mg/kg/injection, schedule: Q01DX009 (ip), vehicle: Klucel (hydroxypropylcellulose) (HPC)
[9] = dose: 6.25 mg/kg/injection, schedule: Q01DX009 (ip), vehicle: saline
[10] = dose: 12.5 mg/kg/injection, schedule: Q01DX009 (ip), vehicle: Klucel (hydroxypropylcellulose) (HPC)
[11] = dose: 25.0 mg/kg/injection, schedule: Q01DX009 (ip), vehicle: Klucel (hydroxypropylcellulose) (HPC)
[12] = dose: 50.0 mg/kg/injection, schedule: Q01DX009 (ip), vehicle: Klucel (hydroxypropylcellulose) (HPC)

In the case of `C[C@H]1[C@H](O)[C@H]2[C@@H](CCC3=CC(=O)CC[C@@]32C)[C@@H]2CC[C@H](O)[C@@]12C`, the T/C [1] was 94 % of control and the T/C [2] was 100 % of control.

In the case of `C(=NC1CCCCC1)c1c[nH]c2ccccc12`, the T/C [3] was 100 % of control, the T/C [1] was 97 % of control and the T/C [2] was 97 % of control.

`NC(=O)c1nc2n(c1N)CCC2` was tested, and the T/C (dose: 100.0 mg/kg/injection, schedule: Q04DX003 (ip), vehicle: saline with Tween-80) was 102 % of control, the T/C (dose: 200.0 mg/kg/injection, schedule: Q04DX003 (ip), vehicle: saline with Tween-80) was 105 % of control and the T/C (dose: 400.0 mg/kg/injection, schedule: Q04DX003 (ip), vehicle: saline with Tween-80) was 94 % of control.

With `CC(C)N(Cc1ccccc1)CC(O)c1ccc(Cl)cc1` (configuration not stated) the T/C [4] was 94 % of control, the T/C [5] was 86 % of control and the T/C (dose: 50.0 mg/kg/injection, schedule: Q01DX009 (ip), vehicle: saline) was 101 % of control.

For `Cc1ccc(Nc2ccc([N+](=O)[O-])cc2[N+](=O)[O-])cc1C`, the T/C [6] was 98 % of control, the T/C [7] was 97 % of control and the T/C [8] was 96 % of control.

With `CCCCCCCC(O)CCCC` (configuration not stated) the T/C [6] was 92 % of control, the T/C [7] was 98 % of control and the T/C [8] was 86 % of control.

`O=C1NC(c2ccccc2)C(=O)N1CCN(CCCl)CCCl` (configuration not stated) was tested, and the T/C (dose: 1.56 mg/kg/injection, schedule: Q01DX009 (ip), vehicle: saline) was 89 % of control and 109 % of control, the T/C (dose: 3.12 mg/kg/injection, schedule: Q01DX009 (ip), vehicle: saline) was 95 % of control and 114 % of control and the T/C [9] was 123 % of control. For the same compound, the T/C [5] was 115 % of control.

In the case of `N=C(N)c1ccc(/C=C/c2ccc(C(=N)N)cc2)cc1`, the T/C (dose: 16.0 mg/kg/injection, schedule: Q01DX009 (ip), vehicle: saline with Tween-80) was 98 % of control and the T/C (dose: 32.0 mg/kg/injection, schedule: Q01DX009 (ip), vehicle: saline with Tween-80) was 93 % of control.

With `O=C1/C(=C/c2ccc([N+](=O)[O-])cc2)CCc2ccccc21` the T/C (dose: 12.5 mg/kg/injection, schedule: Q01DX009 (ip), vehicle: water) was 94 % of control, the T/C (dose: 25.0 mg/kg/injection, schedule: Q01DX009 (ip), vehicle: water) was 97 % of control and the T/C (dose: 50.0 mg/kg/injection, schedule: Q01DX009 (ip), vehicle: water) was 92 % of control. For the same compound, the T/C (dose: 100.0 mg/kg/injection, schedule: Q01DX009 (ip), vehicle: water) was 92 % of control.

With `CCN(CC)CCNc1ccc(CO)c2sc3ccccc3c(=O)c12` the T/C (dose: 0.25 mg/kg/injection, schedule: Q01DX009 (ip), vehicle: saline) was 100 % of control, the T/C (dose: 0.5 mg/kg/injection, schedule: Q01DX009 (ip), vehicle: saline) was 94 % of control and the T/C (dose: 1.0 mg/kg/injection, schedule: Q01DX009 (ip), vehicle: saline) was 89 % of control. The T/C (dose: 2.0 mg/kg/injection, schedule: Q01DX009 (ip), vehicle: saline) was 100 % of control, the T/C (dose: 2.4 mg/kg/injection, schedule: Q01DX009 (ip), vehicle: saline with Tween-80) was 89 % of control and the T/C (dose: 4.8 mg/kg/injection, schedule: Q01DX009 (ip), vehicle: saline with Tween-80) was 97 % of control. The T/C (dose: 9.5 mg/kg/injection, schedule: Q01DX009 (ip), vehicle: saline with Tween-80) was 105 % of control, the T/C (dose: 19.0 mg/kg/injection, schedule: Q01DX009 (ip), vehicle: saline with Tween-80) was 97 % of control and the T/C (dose: 38.0 mg/kg/injection, schedule: Q01DX009 (ip), vehicle: saline with Tween-80) was 110 % of control.

In the case of `Cc1cc(OCc2nc(N)nc(N)c2-c2ccc(Cl)c(Cl)c2)ccc1NS(=O)(=O)c1cccc(S(=O)(=O)F)c1`, the T/C (dose: 117.0 mg/kg/injection, schedule: Q04DX003 (ip), vehicle: saline) was 122 % of control and the T/C (dose: 400.0 mg/kg/injection, schedule: Q04DX003 (ip), vehicle: saline) was 117 % of control.

`[Cl][Pt+2][Cl].[NH-]C1CCCCC1.[NH-]C1CCCCC1` was tested, and the T/C (dose: 6.25 mg/kg/injection, schedule: Q01DX009 (ip), vehicle: Klucel (hydroxypropylcellulose) (HPC)) was 105 % of control, the T/C [10] was 110 % of control and the T/C [11] was 92 % of control and 117 % of control. The T/C [12] was 97 % of control.

With `Cc1cc(Cl)ccc1NC(=O)CCl` the T/C [1] was 100 % of control and the T/C [2] was 95 % of control.

With `COc1cc(C=Nc2ccc(-c3nc(Cc4ccccc4)sc3C)cc2)ccc1N(CCCl)CCCl` the T/C [10] was 175 % of control and 186 % of control and the T/C [11] was 191 % of control.

`C=CCc1cc2c(C)cc(=O)oc2c(C)c1OC(C)=O` was tested, and the T/C (dose: 100.0 mg/kg/injection, schedule: Q04DX003 (ip), vehicle: gum acacia) was 95 % of control, the T/C (dose: 200.0 mg/kg/injection, schedule: Q04DX003 (ip), vehicle: gum acacia) was 86 % of control and the T/C (dose: 400.0 mg/kg/injection, schedule: Q04DX003 (ip), vehicle: gum acacia) was 86 % of control.

With `COc1ccccc1OCC(O)COC(N)=O` (configuration not stated) the T/C [11] was 94 % of control, the T/C [12] was 91 % of control and the T/C [6] was 105 % of control. For the same compound, the T/C [7] was 100 % of control and the T/C [8] was 105 % of control.

`CCN(CC)C(N)=S` was tested, and the T/C (dose: 100.0 mg/kg/injection, schedule: Q04DX003 (ip), vehicle: Klucel (hydroxypropylcellulose) (HPC)) was 102 % of control, the T/C (dose: 200.0 mg/kg/injection, schedule: Q04DX003 (ip), vehicle: Klucel (hydroxypropylcellulose) (HPC)) was 95 % of control and the T/C (dose: 400.0 mg/kg/injection, schedule: Q04DX003 (ip), vehicle: Klucel (hydroxypropylcellulose) (HPC)) was 97 % of control.

For `COc1cc([N+](=O)[O-])ccc1NC(=O)Nc1ccc(Cl)cc1`, the T/C [3] was 93 % of control, the T/C [1] was 91 % of control and the T/C [2] was 101 % of control.

In the case of `COC(=O)c1cc(C)c(Br)c(N)c1`, the T/C (dose: 37.5 mg/kg/injection, schedule: Q04DX003 (ip), vehicle: Klucel (hydroxypropylcellulose) (HPC)) was 97 % of control, the T/C (dose: 75.0 mg/kg/injection, schedule: Q04DX003 (ip), vehicle: Klucel (hydroxypropylcellulose) (HPC)) was 92 % of control and the T/C (dose: 150.0 mg/kg/injection, schedule: Q04DX003 (ip), vehicle: Klucel (hydroxypropylcellulose) (HPC)) was 94 % of control.

In the case of `COc1ccccc1N1C(=O)C=CC1=O`, the T/C (dose: 0.63 mg/kg/injection, schedule: Q01DX009 (ip), vehicle: saline with Tween-80) was 93 % of control, the T/C (dose: 1.25 mg/kg/injection, schedule: Q01DX009 (ip), vehicle: saline with Tween-80) was 89 % of control and the T/C (dose: 2.5 mg/kg/injection, schedule: Q01DX009 (ip), vehicle: saline with Tween-80) was 87 % of control.

`CCc1ncnc2cc(OCC3CO3)c(OC)cc12` (configuration not stated) was tested, and the T/C (dose: 6.25 mg/kg/injection, schedule: Q01DX009 (ip), vehicle: saline with Tween-80) was 109 % of control, the T/C (dose: 20.0 mg/kg/injection, schedule: Q04DX003 (ip), vehicle: other) was 114 % of control and the T/C [5] was 154 % of control.

With `NP(Cl)(c1ccccc1)(c1ccccc1)c1ccccc1` the T/C (dose: 0.1 mg/kg/injection, schedule: Q01DX009 (ip), vehicle: Klucel (hydroxypropylcellulose) (HPC)) was 103 % of control, the T/C (dose: 0.2 mg/kg/injection, schedule: Q01DX009 (ip), vehicle: Klucel (hydroxypropylcellulose) (HPC)) was 96 % of control and the T/C (dose: 0.39 mg/kg/injection, schedule: Q01DX009 (ip), vehicle: Klucel (hydroxypropylcellulose) (HPC)) was 100 % of control.

`CCOC(=O)C(C(=O)OCC)N(CC)CC` was tested, and the T/C [6] was 93 % of control, the T/C [7] was 90 % of control and the T/C [8] was 100 % of control.

With `O=CN(O)CC(=O)O.[Zn]` the T/C (dose: 5.0 mg/kg/injection, schedule: Q01DX009 (ip), vehicle: saline) was 99 % of control, the T/C (dose: 10.0 mg/kg/injection, schedule: Q01DX009 (ip), vehicle: saline) was 98 % of control and the T/C (dose: 20.0 mg/kg/injection, schedule: Q01DX009 (ip), vehicle: saline) was 88 % of control.

For `CC1(C)N=C(N)N=C(N)N1c1ccc(CCC(=O)Nc2ccc(S(=O)(=O)F)cc2)c(Cl)c1`, the T/C [9] was 104 % of control and the T/C [4] was 108 % of control.

`CCNc1nc(Cl)nc(NC(C)C)n1` was tested, and the T/C [3] was 100 % of control, the T/C [1] was 102 % of control and the T/C [2] was 104 % of control.

`COC(=O)C1CC(C)(C)N(C)C1(C)C` (configuration not stated) was tested, and the T/C [12] was 93 % of control and the T/C [6] was 94 % of control.

With `CCCCCCCCCCCCCCCCC/C=C1\CC(=O)OC1=O` the T/C (dose: 25.0 mg/kg/injection, schedule: Q01DX009 (ip), vehicle: saline with Tween-80) was 97 % of control and 99 % of control, the T/C [3] was 91 % of control and 105 % of control and the T/C [1] was 92 % of control.

In the case of `CCOc1nsc(OCC)n1`, the T/C (dose: 12.5 mg/kg/injection, schedule: Q04DX003 (ip), vehicle: distilled water + Tween-80) was 103 % of control, the T/C (dose: 25.0 mg/kg/injection, schedule: Q04DX003 (ip), vehicle: distilled water + Tween-80) was 96 % of control and the T/C (dose: 50.0 mg/kg/injection, schedule: Q04DX003 (ip), vehicle: distilled water + Tween-80) was 99 % of control. For the same compound, the T/C (dose: 100.0 mg/kg/injection, schedule: Q04DX003 (ip), vehicle: distilled water + Tween-80) was 98 % of control.

From PubChem BioAssay AID192 (DTP/NCI, 2004)
